Source: ChEMBL document CHEMBL1141389, “Bioactive diterpenes from Orthosiphon labiatus and Salvia africana-lutea” (J Nat Prod, 2007)
Converted amounts (≈) assume the structure as drawn. The source made the active and inactive calls. The calls are words filed in the database; no cut-off is given here.

Experiments:
[1] = tested on: Mycobacterium tuberculosis; assay: Antimycobacterial activity against Mycobacterium tuberculosis H37Rv ATCC 27294 at 650 uM; assay type: functional, organism-based
[2] = tested on: MCF7; assay: Cytotoxicity against human MCF7 cells at 650 uM; assay type: cell-based; conditions: mcf7, 650 µM
[3] = tested on: Mycobacterium tuberculosis; assay: Antimycobacterial activity against Mycobacterium tuberculosis H37Rv ATCC 27294; assay type: functional
[4] = tested on: MCF7; assay: Cytotoxicity against human MCF7 cells; assay type: cell-based

Structure (SMILES) | Activity [1] | Activity [2] | MIC [3] | IC50 [4]
CC(C)c1cc2c(c(O)c1O)[C@@]13CCCC(C)(C)[C@@H]1C[C@@H]2OC3=O [CARNOSOL] | inactive | Not Active |  | 
C=C/C(C)=C/C[C@H]1C(=C)CC[C@@H]2[C@]1(C)C[C@@H](O)C[C@@]2(C)C(=O)O |  | Not Active | 157 µM (≈ 50 µg/mL) | 
COC(=O)[C@]12CCCC(C)(C)[C@@H]1CCc1cc(C(C)C)c(OC)c(O)c12 |  |  | 28 µM (≈ 10.1 µg/mL) | 69 µM
C=C/C(C)=C/C[C@H]1C(=C)CC[C@H]2[C@](C)(CO)C[C@H](O)C[C@]12C | inactive |  |  | 82 µM
